The values below come from US8809391B2, “Agent for treating Parkinson's disease” (OOO “Tomskaya Farmatsevticheskaya Fabrika”, priority 2009, dated 2014).

Format in all cases: in vivo
Assay [1] relates to MPTP-induced parkinsonism. Put plainly: Antiparkinson activity in mice in 10 days administration of MPTP and the agent (mortality). The following applies: for Mortality, %: C57B1/6 mice, MPTP 30 mg/kg i.p. daily 10 days, day 11. Here is the method:
(§1) Antiparkinson activity of the agents was studied by the degree of hypokinesia and locomotor activity using Truscan apparatus (USA) or by mortality percentage.
Experiments were carried out in male mice of C57B1/6 strain in groups of 10 mice each. Parkinson syndrome was induced by intraperitoneal administration of 30 mg/kg dose of MPTP daily during 10 days. The agent ((1R,2R,6S)-1a in 20 mg/kg dose and levodopa (the drug of comparison) in 10 mg/kg dose were administered per os 4 hours after MPTP injection daily during 10 days. The effect was evaluated by the number of surviving animals on the 11 day of the experiment.

The test system of assay [2] is MPTP-induced parkinsonism. The assay is described as follows: Antiparkinson activity in rats in 30 days administration of MPTP and the agent (locomotor activity, TruScan). The conditions noted are these: for general movement activity (number of movement acts) / movement activity / movement distance / movement speed / number of explored holes / number of rearings / time of exploratory activity: Wistar rats, MPTP 30 mg/kg (table; text 40 mg/kg) i.p. daily 30 days, day 30, 3 min. The method, then: (§2) Parkinsonism was induced by single and multiple intraperitoneal administration of MPTP in 30 mg/kg doses in male mice of C57B1/6 strain and Wistar rats.
as §1
Experiments were carried out in male Wistar rats in groups of 10 mice each. Parkinson syndrome was induced by intraperitoneal administration of 40 mg/kg dose of MPTP daily during 30 days. Saline was administered to intact control group. The agent ((1R,2R,6S)-1a in 20 mg/kg dose and levodopa (the drug of comparison) in 10 mg/kg dose were administered per os 4 hours after MPTP injection daily during 30 days. Hypokinesia was evaluated on 30 day of experiment by the degree of locomotor activity using TruScan apparatus (USA) during 3 minutes.

In assay [3] the test system is MPTP-induced parkinsonism. The assay is described as follows: Antiparkinson activity in mice after 3 days administration of MPTP (locomotor activity, TruScan). The following applies: for general movement activity (number of movement acts) / movement activity / movement distance / movement speed / number of explored holes / number of rearings / time of exploratory activity: 3 min. Here is the method: as §2, §1
Experiments were carried out in male mice of C57B1/6 strain in groups of 10 mice each. Parkinson syndrome was induced by intraperitoneal administration of 30 mg/kg dose of MPTP during 3 days. The agent ((1R,2R,6S)-1a was administered per os in 20 mg/kg and 30 mg/kg doses 24 hours after the last MPTP injection. Hypokinesia was evaluated 1 hour after the agent administration by the degree of locomotor activity using TruScan apparatus (USA) during 3 minutes.
Experiments were carried out in male mice of C57B1/6 strain in groups of 10 mice each. Parkinson syndrome was induced by intraperitoneal administration of 30 mg/kg dose of MPTP daily during 3 days. Agent (1R,2R,6S)-1b with ee 60% in 20 mg/kg dose was administered per os 24 hours after the last MPTP injection. Hypokinesia was evaluated 1.5 hours after MPTP injection by the degree of locomotor activity using TruScan apparatus (USA) during 3 minutes.

Assay [4] has as its system MPTP-induced parkinsonism. Put plainly: Antiparkinson activity in mice after single administration of MPTP (locomotor activity, TruScan). The following applies: for general movement activity (number of movement acts) / movement activity / movement distance / movement speed / number of explored holes / number of rearings / time of exploratory activity: single MPTP 30 mg/kg i.p., 1.5 h after MPTP, 3 min; for antiparkinson activity (in words): mice, single administration of MPTP, doses 10 and/or 20 mg/kg per os as stated in the sentence. The method, then: as §2, §1
Experiments were carried out in male mice of C57B1/6 strain in groups of 10 mice each. Parkinson syndrome was induced by intraperitoneal administration of 30 mg/kg dose of MPTP, saline was administered to intact control group. The agent was administered per os 15 minutes after the reproduction of Parkinson syndrome. Hypokinesia was evaluated 1.5 hours after MPTP injection by the degree of locomotor activity using TruScan apparatus (USA) during 3 minutes.
Experiments were carried out in male mice of C57B1/6 strain in groups of 10 mice each. Parkinson syndrome was induced by intraperitoneal administration of 30 mg/kg dose of MPTP, saline was administered to intact control group. The agents in 20 mg/kg doses were administered per os 15 minutes after the reproduction of Parkinson syndrome. Hypokinesia was evaluated 1.5 hours after MPTP injection by the degree of locomotor activity using TruScan apparatus (USA) during 3 minutes.
Experiments were carried out in male mice of C57B1/6 strain in groups of 10 mice each. Parkinson syndrome was induced by intraperitoneal administration of 30 mg/kg dose of MPTP, saline was administered to intact control group. The agent in 10 mg/kg and 20 mg/kg doses were administered per os 15 minutes after the reproduction of Parkinson syndrome. Hypokinesia was evaluated 1.5 hours after MPTP injection by the degree of locomotor activity using TruScan apparatus (USA) during 3 minutes.

Setting [5] is: agent 20 mg/kg per os 4 h after MPTP daily.
Setting [6] is: C57B1/6 mice, MPTP 30 mg/kg i.p. 3 days, agent 20 mg/kg per os 24 h after last MPTP, 1 h after agent.
Where [7] appears, read: C57B1/6 mice, MPTP 30 mg/kg i.p. 3 days, agent 30 mg/kg per os 24 h after last MPTP, 1 h after agent.
[8] abbreviates: C57B1/6 mice, agent 10 mg/kg per os 15 min after.
Where [9] appears, read: C57B1/6 mice, agent 20 mg/kg per os 15 min after.
[10] abbreviates: Table 5: C57B1/6 mice, agents 20 mg/kg per os 15 min after.
The mark [11] stands for this setting: Table 7: C57B1/6 mice, MPTP 30 mg/kg i.p. daily 3 days, agent 20 mg/kg per os 24 h after last MPTP.
[12] abbreviates: Table 6: C57B1/6 mice, agent 10 mg/kg per os 15 min after.
[13] abbreviates: Table 6: C57B1/6 mice, agent 20 mg/kg per os 15 min after.
Setting [14] is: L-DOPA 10 mg/kg per os 4 h after MPTP daily.

On to `C=C(C)[C@@H]1CC=C(C)[C@@H](O)[C@@H]1O` [(1R,2R,6S)-1a with ee 60%, (1R,2R,6S)-3-methyl-6-(1-methylethenyl)cyclohex-3-ene-1,2-diol], for which the “Mortality, %” value in assay [1] (setting [5]) was found to be 10%. Moreover, the “effect on mortality (in words)” value in assay [1] (mice, 20 mg/kg, 10 days of administration of the agents and MPTP) is on record as “considerably reduces mortality”. Also, the “comparison with levodopa (in words)” value in assay [1] (mice, mortality test, agent 20 mg/kg vs levodopa 10 mg/kg) is given as “as good as the drug of comparison levodopa”; in assay [2] (rats, 30 days, agent 20 mg/kg vs levodopa 10 mg/kg), “as good as the drug of comparison levodopa”. The “general movement activity (number of movement acts)” value (shortened to “general movement activity”) in assay [2] (setting [5]) is on record as 81.89 ± 5.5; in assay [3] (setting [6]) it was 81.9 ± 3.7; in assay [3] (setting [7]), 81.8 ± 2.6; in assay [4] (setting [8]), 77.2 ± 5; in assay [4] (setting [9]), 80.7 ± 4. Also, the movement activity in assay [2] (setting [5]) was 62.56 ± 5.2 s; in assay [3] (setting [6]), 70.1 ± 3.9 s; in assay [3] (setting [7]), 66.8 ± 3.7 s; in assay [4] (setting [8]), 57 ± 5.3 s; in assay [4] (setting [9]), 59 ± 4 s. Besides, the movement distance in assay [2] (setting [5]) is reported as 305.58 ± 30.38 cm; in assay [3] (setting [6]), 351.8 ± 26.4 cm; in assay [3] (setting [7]), 335.5 ± 28.9 cm; in assay [4] (setting [8]), 257.3 ± 29.5 cm; in assay [4] (setting [9]), 276.5 ± 24 cm. The movement speed came to 2.5 ± 0.25 cm/s in assay [2] (setting [5]); 2.9 ± 0.2 cm/s in assay [3] (setting [6]); 2.7 ± 0.2 cm/s in assay [3] (setting [7]); 2.1 ± 0.25 cm/s in assay [4] (setting [8]); 2.25 ± 0.2 cm/s in assay [4] (setting [9]). Besides, the “number of explored holes” value in assay [2] (setting [5]) came out at 4.3 ± 0.73; in assay [3] (setting [6]) it was 8.8 ± 1.0; in assay [3] (setting [7]), 3.8 ± 0.6; in assay [4] (setting [8]) it was 7.7 ± 1.07; in assay [4] (setting [9]), 7.6 ± 1.7. In addition, the number of rearings is 10.67 ± 1.18 in assay [2] (setting [5]); 11.1 ± 0.9 in assay [3] (setting [6]); 13 ± 1.7 in assay [3] (setting [7]); 5.8 ± 0.6 in assay [4] (setting [8]); 8.5 ± 2 in assay [4] (setting [9]). Besides, the “time of exploratory activity” value in assay [2] (setting [5]) turned out to be 1.75 ± 0.5 s; in assay [3] (setting [6]), 3.9 ± 0.5 s; in assay [3] (setting [7]), 1.6 ± 0.3 s; in assay [4] (setting [8]) it was 3.6 ± 0.7 s; in assay [4] (setting [9]), 4.4 ± 1 s. In addition, the “antiparkinson activity (in words)” value in assay [2] (rats, 20 mg/kg, 30 days administration of MPTP and the agent) was “remarkable antiparkinson activity”; in assay [4], “remarkable antiparkinson activity”.

For `C=C(C)[C@@H]1CC=C(C)[C@@H](O)[C@@H]1O` [(1R,2R,6S)-1a with ee 94%, (1R,2R,6S)-3-methyl-6-(1-methylethenyl)cyclohex-3-ene-1,2-diol], in assay [4] (setting [10]), the “general movement activity” value came out at 78.6 ± 5.0, the movement activity is 64.0 ± 5.5 s, the movement distance came to 332.6 ± 39.6 cm and the movement speed was found to be 2.7 ± 0.3 cm/s. Also, in assay [4] (setting [10]), the “number of explored holes” value is given as 3.2 ± 0.9, the number of rearings is 13.1 ± 2.5 and the “time of exploratory activity” value amounted to 1.5 ± 0.4 s.

With `C=C(C)[C@@H]1CC=C(C)[C@@H](O)[C@@H]1O` [(1R,2R,6S)-1b with ee 60%, diacetate (1R,2R,6S)-3-methyl-6-(1-methylethenyl)cyclohex-3-ene-1,2-diol], in assay [3] (setting [11]), the “general movement activity” value turned out to be 83.9 ± 3.5, the movement activity was 64.1 ± 5.0 s, the movement distance is 310.0 ± 35.6 cm and the movement speed was determined as 2.5 ± 0.3 cm/s. In assay [3] (setting [11]), the “number of explored holes” value is 6.0 ± 1.0, the number of rearings is 10.4 ± 1.5 and the “time of exploratory activity” value amounted to 3.2 ± 0.8 s. Moreover, the “antiparkinson activity (in words)” value in assay [3] (mice, 3 days administration of MPTP, doses 20 (and 30) mg/kg per os as stated in the sentence) is given as “remarkable antiparkinson activity”. Also, in assay [4] (setting [12]), the “general movement activity” value came out at 69.9 ± 6.7, the movement activity turned out to be 51.5 ± 7.5 s, the movement distance amounted to 244.4 ± 4.5 cm and the movement speed amounted to 2.0 ± 0.4 cm/s. Also, in assay [4] (setting [12]), the “number of explored holes” value is 3.4 ± 1.1, the number of rearings worked out at 6.4 ± 1.6 and the “time of exploratory activity” value is 1.3 ± 0.5 s. In assay [4] (setting [13]), the “general movement activity” value was 84.8 ± 4.4, the movement activity was determined as 58.8 ± 4.5 s, the movement speed came to 1.9 ± 0.4 cm/s and the “number of explored holes” value was found to be 3.2 ± 0.5. In addition, in assay [4] (setting [13]), the number of rearings was 10.8 ± 1.7 and the “time of exploratory activity” value was found to be 2.0 ± 0.3 s.

In the case of `C=C(C)[C@H]1CC=C(C)[C@H](O)[C@H]1O` [(1S,2S,6R)-1a with ee 97%, (1S,2S,6R)-3-methyl-6-(1-methylethenyl)cyclohex-3-ene-1,2-diol], in assay [4] (setting [10]), the “general movement activity” value came out at 57.9 ± 6.0, the movement activity worked out at 34.9 ± 4.3 s, the movement distance amounted to 147.8 ± 20.3 cm and the movement speed was found to be 1.13 ± 0.15 cm/s. Besides, in assay [4] (setting [10]), the “number of explored holes” value turned out to be 2.5 ± 0.9, the number of rearings was 4.4 ± 1.4 and the “time of exploratory activity” value was determined as 1.2 ± 0.6 s. For the same compound, the “antiparkinson activity (in words)” value in assay [4] is recorded as “remarkable antiparkinson activity”.

Turning to `N[C@@H](Cc1ccc(O)c(O)c1)C(=O)O` [L-DOPA, reference compound], the “Mortality, %” value in assay [1] (setting [14]) was 20%. For the same compound, in assay [2] (setting [14]), the “general movement activity” value was 86 ± 3.86, the movement activity came out at 65.09 ± 2.92 s, the movement distance is recorded as 316.77 ± 16.2 cm and the movement speed is 2.57 ± 0.13 cm/s. Moreover, in assay [2] (setting [14]), the “number of explored holes” value is recorded as 4.63 ± 0.56, the number of rearings is recorded as 9.63 ± 1.16 and the “time of exploratory activity” value came out at 1.66 ± 0.25 s.
